Consider one compound from ChEMBL document CHEMBL5055690, “Introducing the Tellurophene-Appended BODIPY: PDT Agent with Mass Cytometry Tracking Capabilities” (ACS Med Chem Lett, 2021).

Calls of active or inactive are those of the source. The rule behind the calls is not given here.

Series [1] in a line: Drug uptake in human HeLa cells assessed as drug accumulation at 25 to 1000 nM incubated for 3 hrs under dark condition by […] mass cytometry. In kind it is ADME, cell-based. The following applies: 1 µM, dose 25-1000 nM.
Series [2] deals with HeLa. The series can be described thus: Induction of apoptosis in human HeLa spheroids assessed as cell death at 100 nM preincubated for 3 hrs followed by irradiation with 23.6 milliwolt/cm2 of 525 nanometer laser light for 5 mins and measured after overnight by plate reader assay. The note with it: time 185.0 min. It counts as functional, cell-based.
Series [3] can be described thus: Induction of singlet oxygen generation in DMF solution assessed as singlet oxygen quantum yield irradiated with 490 nanometer LED light by DPBF-based assay. It counts as functional.
Series [4] deals with HeLa. The series can be described thus: Dark toxicity in human HeLa cells assessed as reduction in cell viability measured after 3 hrs by MTT assay. It counts as cell-based. Background: Tetrazolium assays rely on reduction of a dye to a coloured formazan, in cell work by metabolically active cells.
The subject of series [5] is HeLa. The series can be described thus: Induction of ROS generation in human HeLa cells at 25 nM measured after 3 hrs by DCFDA staining based flourescence assay. In kind it is cell-based. The note with it: 0.025 µM.
For series [6], the system named is HeLa. The series can be described thus: Induction of ROS generation in human HeLa cells at 25 nM preincubated for 3 hrs followed by irradiation with 23.6 milliwolt/cm2 of 525 nanometer laser light for 5 mins and measured by DCFDA staining based flourescence method. The note with it: time 185.0 min. In kind it is functional, cell-based.
Series [7] has as its system HeLa. Nature of the series: Induction of apoptosis in human HeLa cells at 1.25 nM preincubated for 3 hrs followed by irradiation with 23.6 milliwolt/cm2 of 525 nanometer laser light for 5 mins and measured after 4 hrs by Annexin V/PI staining based flowcytometry assay. It counts as functional, cell-based. The note with it: time 185.0 min.

One may read the IC50 as the concentration that gives 50% inhibition. For `F[B-]1(F)n2cccc2C(c2ccc(-c3ccc[te]3)cc2)=C2C=CC=[N+]21`, in series [1], the Drug uptake entry was “Active”. The result in series [2], in series [6] and in series [7] was Active. Further, the Activity was 0.26 in series [3] and “Non-Toxic” in series [5]. In addition, the IC50 in series [4] came to 1350 nM.
